Paper PMC3914206

Tests used:
Type in all cases: binding
[1] = molecular target: T1, panel of 442 kinases (Homo sapiens, UniProt P00533, L858R/T790M); conditions: Compound Concentration 10 µM
T1 construct: purchased KINOMEscan
From the text: (§1) We assessed the selectivity of members of this scaffold using the KINOMEscan methodology across a near comprehensive panel of 442 kinases [[18,27]].

[2] = molecular target: T2, panel of 442 kinases (Homo sapiens, UniProt Q13131); conditions: Compound Concentration 10 µM
T2 construct: purchased KINOMEscan
From the text: as §1

[3] = molecular target: T3, panel of 442 kinases (Homo sapiens, UniProt Q9UKI8); conditions: kinase TLK1; compound concentration 10 µM
T3 construct: purchased KINOMEscan
T3 sequence (Q9UKI8 1-766): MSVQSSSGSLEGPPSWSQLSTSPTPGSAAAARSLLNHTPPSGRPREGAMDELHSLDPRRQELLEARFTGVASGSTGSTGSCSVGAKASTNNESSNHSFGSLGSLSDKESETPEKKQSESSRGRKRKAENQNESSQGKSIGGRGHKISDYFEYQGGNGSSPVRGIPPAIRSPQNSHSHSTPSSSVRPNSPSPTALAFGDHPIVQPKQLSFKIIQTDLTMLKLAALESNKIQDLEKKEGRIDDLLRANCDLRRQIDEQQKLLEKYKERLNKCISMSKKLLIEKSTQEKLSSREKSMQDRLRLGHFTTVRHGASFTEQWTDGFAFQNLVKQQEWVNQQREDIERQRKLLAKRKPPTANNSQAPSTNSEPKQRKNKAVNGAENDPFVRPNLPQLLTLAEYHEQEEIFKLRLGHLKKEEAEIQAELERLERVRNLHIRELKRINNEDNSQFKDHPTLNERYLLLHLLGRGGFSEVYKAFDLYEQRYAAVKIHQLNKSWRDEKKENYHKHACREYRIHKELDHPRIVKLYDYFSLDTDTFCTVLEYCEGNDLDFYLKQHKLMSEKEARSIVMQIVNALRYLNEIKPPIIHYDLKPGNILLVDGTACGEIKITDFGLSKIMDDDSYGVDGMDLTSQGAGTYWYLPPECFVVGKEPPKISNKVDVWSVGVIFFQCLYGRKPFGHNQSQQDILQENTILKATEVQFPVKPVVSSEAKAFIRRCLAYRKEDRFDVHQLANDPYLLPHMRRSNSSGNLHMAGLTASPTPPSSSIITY
From the text: as §1

T2 sequence (Q13131 whole entry): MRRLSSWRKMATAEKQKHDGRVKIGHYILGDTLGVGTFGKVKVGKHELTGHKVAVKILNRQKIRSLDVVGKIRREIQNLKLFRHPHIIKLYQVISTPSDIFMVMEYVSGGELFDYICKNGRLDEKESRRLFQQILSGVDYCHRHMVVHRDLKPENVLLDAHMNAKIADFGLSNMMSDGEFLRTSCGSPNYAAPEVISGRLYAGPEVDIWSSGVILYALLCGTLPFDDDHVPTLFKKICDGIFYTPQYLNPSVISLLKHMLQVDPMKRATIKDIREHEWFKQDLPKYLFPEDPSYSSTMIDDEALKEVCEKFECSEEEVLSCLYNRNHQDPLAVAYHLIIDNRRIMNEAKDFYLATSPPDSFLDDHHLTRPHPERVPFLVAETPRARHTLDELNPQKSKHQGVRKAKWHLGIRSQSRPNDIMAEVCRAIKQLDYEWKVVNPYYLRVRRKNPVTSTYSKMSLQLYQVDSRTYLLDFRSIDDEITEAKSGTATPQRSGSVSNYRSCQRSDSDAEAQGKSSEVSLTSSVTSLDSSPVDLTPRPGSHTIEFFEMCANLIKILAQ
T1 sequence (P00533 25-1210 T790M/L858R): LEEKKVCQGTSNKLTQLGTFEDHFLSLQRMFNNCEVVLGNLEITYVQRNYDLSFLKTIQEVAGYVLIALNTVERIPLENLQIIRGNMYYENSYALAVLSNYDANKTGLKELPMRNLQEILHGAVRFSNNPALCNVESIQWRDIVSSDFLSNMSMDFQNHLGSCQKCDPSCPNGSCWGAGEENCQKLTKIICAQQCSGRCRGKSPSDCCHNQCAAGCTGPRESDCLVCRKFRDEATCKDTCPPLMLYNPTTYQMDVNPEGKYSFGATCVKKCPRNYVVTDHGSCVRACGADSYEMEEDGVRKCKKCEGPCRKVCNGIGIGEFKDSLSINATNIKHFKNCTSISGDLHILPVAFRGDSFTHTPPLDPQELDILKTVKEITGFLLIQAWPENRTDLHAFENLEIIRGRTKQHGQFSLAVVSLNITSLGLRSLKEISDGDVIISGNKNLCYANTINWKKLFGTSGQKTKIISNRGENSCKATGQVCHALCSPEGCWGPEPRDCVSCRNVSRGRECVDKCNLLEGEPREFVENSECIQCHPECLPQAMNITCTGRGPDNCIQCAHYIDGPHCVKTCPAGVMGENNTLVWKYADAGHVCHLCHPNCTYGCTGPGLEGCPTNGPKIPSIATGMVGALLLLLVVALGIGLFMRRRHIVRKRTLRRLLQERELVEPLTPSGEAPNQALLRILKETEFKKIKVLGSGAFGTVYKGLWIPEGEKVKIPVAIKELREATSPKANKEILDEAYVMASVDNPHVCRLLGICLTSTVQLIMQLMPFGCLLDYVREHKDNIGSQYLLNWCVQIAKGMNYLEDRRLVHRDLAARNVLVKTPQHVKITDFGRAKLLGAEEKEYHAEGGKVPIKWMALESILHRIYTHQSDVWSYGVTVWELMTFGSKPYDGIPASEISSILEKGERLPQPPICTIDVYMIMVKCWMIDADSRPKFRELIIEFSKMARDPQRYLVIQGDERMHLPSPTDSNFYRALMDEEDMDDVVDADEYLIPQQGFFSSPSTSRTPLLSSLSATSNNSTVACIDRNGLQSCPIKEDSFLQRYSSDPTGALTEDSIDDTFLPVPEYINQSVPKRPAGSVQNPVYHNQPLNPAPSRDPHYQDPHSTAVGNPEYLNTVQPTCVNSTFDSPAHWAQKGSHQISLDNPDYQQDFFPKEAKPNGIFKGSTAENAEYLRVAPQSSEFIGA

SMILES | KINOMEscan: EGFR(L858R,T790M) [1] | KINOMEscan: AMPK-alpha1 [2] | % Ctrl, TLK1 [3]
COc1cc(C(=O)N2CCC(N3CCN(C)CC3)CC2)ccc1Nc1ncc2c(n1)N(C1CCCC1)c1ccccc1C(=O)N2C [Compound 25, 11-cyclopentyl-2-((2-methoxy-4-(4-(4-methylpiperazin-1-yl)piperidine-1-carbonyl)phenyl)amino)-5-methyl-5H-benzo[e]pyrimido[5,4-b][1,4]diazepin-6(11H)-one] | 100 | 48 | 74 % Ctrl
COc1cc(C(=O)N2CCC(N3CCN(C)CC3)CC2)ccc1Nc1ncc2c(n1)N(C)c1ccccc1C(=O)N2C [15 (LRRK2-IN-1)] | 84 | 51 | 100 % Ctrl
CCOc1cc(C(=O)N2CCC(N3CCN(C)CC3)CC2)ccc1Nc1ncc2c(n1)N(C1CCCC1)c1ccccc1C(=O)N2C [Compound 26] | 78 | 100 | 90 % Ctrl
